Counter-ions that a name gives are not always drawn.
Tests used:
P38b MAPK = target: T1, P38b MAPK (Homo sapiens, UniProt Q15759); test: P38b MAPK protein kinase assay; assay type: biochemical; conditions: P38b MAPK, read-out: residual kinase activity; for remaining activity at 1 µM: 1 μM compound; for remaining activity at 10 µM: 10 μM compound
T1 construct: All protein kinases were of human origin and encoded full length proteins, unless indicated otherwise; made in house
From the text: (§1) All protein kinases were of human origin and encoded full length proteins, unless indicated otherwise. They were either expressed as glutathione S-transferase (GST) fusion proteins in Escherichia Coli or as hexahistidine (His6)-tagged proteins in insect Sf21 cells. GST fusion proteins were purified by affinity chromatography on glutathione-Sepharose, and His6-tagged proteins on nickel/nitriloacetate-agarose. The procedures for expressing some of the protein kinases used herein have been detailed previously.^8,9 The following sections outline the DNA vectors synthesised and the procedures used to express and purifying protein kinases that have not been reported previously.
(§2) All assays (25.5 μl) were carried out at room temperature (21° C.) and were linear with respect to time and enzyme concentration under the conditions used. Assays were performed for 30 min using Multidrop Micro reagent dispensers (Thermo Electron Corporation, Waltham, Mass. 02454, USA) in a 96-well format. The concentration of magnesium acetate in the assays was 10 mM and the [γ-33P] ATP (800 cpm/pmol) was used at 5, 20 or 50 μM as indicated, in order to be at or below the Km for ATP for each enzyme. Protein kinases assayed at 5 μM ATP were: —ERK1, ERK8, PKBα, MARK3, Aurora C. Protein kinases assayed at 20 μM ATP were: —JNK1, PDK1, CHK1, CHK2, CDK2 and Aurora B. Protein kinases assayed at 50 μM ATP were: —MNK2, IKKepsilon and TBK1.
(§3) The assays were initiated with MgATP, stopped by addition of 5 μl of 0.5 M orthophosphoric acid and spotted on to P81 filterplates using a unifilter harvester (PerkinElmer, Boston, Mass. 02118, USA). The IC50 values of inhibitors were determined after carrying out assays at 10 different concentrations of each compound.
(§4) Unless stated otherwise, enzymes were diluted in 50 mM Tris/HCl pH 7.5, 0.1 mM EGTA, 1 mg/ml BSA, 0.1% (v/v) 2-mercaptoethanol and assayed in 50 mM Tris/HCl pH 7.5, 0.1 mM EGTA, 0.1% (v/v) 2-mercaptoethanol.

BTK = target: T2, BTK (Homo sapiens, UniProt Q06187); test: BTK protein kinase assay; assay type: biochemical; conditions: BTK, read-out: residual kinase activity; for remaining activity at 1 µM: 1 μM compound; for remaining activity at 10 µM: 10 μM compound
T2 construct: All protein kinases were of human origin and encoded full length proteins, unless indicated otherwise; made in house
From the text: as §1, §2, §3, §4

SmMLCK = SmMLCK protein kinase assay; assay type: biochemical, human; conditions: SmMLCK
From the text: as §1, §2, §3, §4

MST2 = target: T3, MST2 (Homo sapiens, UniProt Q13188); test: MST2 protein kinase assay; assay type: biochemical; conditions: MST2, read-out: residual kinase activity; for remaining activity at 1 µM: 1 μM compound; for remaining activity at 10 µM: 10 μM compound
T3 construct: All protein kinases were of human origin and encoded full length proteins, unless indicated otherwise; made in house
T3 sequence (Q13188 1-491): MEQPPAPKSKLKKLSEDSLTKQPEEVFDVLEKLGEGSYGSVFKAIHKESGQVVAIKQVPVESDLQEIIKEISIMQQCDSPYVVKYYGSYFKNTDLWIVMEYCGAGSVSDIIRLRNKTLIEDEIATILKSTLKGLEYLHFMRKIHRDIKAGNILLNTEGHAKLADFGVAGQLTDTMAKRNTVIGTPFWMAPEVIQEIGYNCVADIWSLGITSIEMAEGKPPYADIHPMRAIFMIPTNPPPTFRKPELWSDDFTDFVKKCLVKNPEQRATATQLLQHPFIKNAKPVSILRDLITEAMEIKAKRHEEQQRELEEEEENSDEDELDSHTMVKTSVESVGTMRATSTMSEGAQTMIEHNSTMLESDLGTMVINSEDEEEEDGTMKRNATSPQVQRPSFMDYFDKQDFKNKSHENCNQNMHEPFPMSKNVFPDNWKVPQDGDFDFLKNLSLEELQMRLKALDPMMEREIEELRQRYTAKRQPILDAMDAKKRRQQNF
From the text: as §1, §2, §3, §4

CAMKKb = target: T4, CAMKKb (Homo sapiens, UniProt Q96RR4); test: CAMKKb protein kinase assay; assay type: biochemical; conditions: CAMKKb, read-out: residual kinase activity; for remaining activity at 1 µM: 1 μM compound; for remaining activity at 10 µM: 10 μM compound
T4 construct: All protein kinases were of human origin and encoded full length proteins, unless indicated otherwise; made in house
From the text: as §1, §2, §3, §4

MKK1 = target: T5, MKK1 (Homo sapiens, UniProt Q02750); test: MKK1 protein kinase assay; assay type: biochemical; conditions: MKK1, read-out: residual kinase activity; for remaining activity at 1 µM: 1 μM compound; for remaining activity at 10 µM: 10 μM compound
T5 construct: All protein kinases were of human origin and encoded full length proteins, unless indicated otherwise; made in house
From the text: as §1, §2, §3, §4

JNK2 = target: T6, JNK2 (Homo sapiens, UniProt P45984); test: JNK2 protein kinase assay; assay type: biochemical; conditions: JNK2, read-out: residual kinase activity; for remaining activity at 1 µM: 1 μM compound; for remaining activity at 10 µM: 10 μM compound
T6 construct: All protein kinases were of human origin and encoded full length proteins, unless indicated otherwise; made in house
From the text: as §1
In order to produce activated forms of Aurora B and Aurora C, insect Sf21 cells were incubated for 1 h with the protein phosphatase inhibitor okadaic acid (50 nM). JNK isoforms were activated with MKK4 and MKK7, MNK2 with p38α MAPkinase; PKBα, PKBβ, with PDK1, and ERK1 with MKK1. To activate CDK2, bacterial pellets expressing cyclin A2 and CDK2 were mixed together, lyse and purified on glutathione Sepharose. The GST-tags were removed by cleavage with PreScission protease and the CDK2-cyclin A2 complex purified by chromatography on SP-Sepharose. It was then activated with CAK1/CDK7 followed by chromatography on nickel-nitrilotriacetate agarose to remove CAK1/CDK7, which binds to this column by virtue of its C-terminal His6 tag. All the other protein kinases were active as expressed.
as §2, §3, §4

FGF-R1 = target: T7, FGF-R1 (Homo sapiens, UniProt P11362); test: FGF-R1 protein kinase assay; assay type: biochemical; conditions: FGF-R1, read-out: residual kinase activity; for remaining activity at 1 µM: 1 μM compound; for remaining activity at 10 µM: 10 μM compound
T7 construct: All protein kinases were of human origin and encoded full length proteins, unless indicated otherwise; made in house
From the text: as §1, §2, §3, §4

PKBb = PKBb (Homo sapiens, UniProt P31751, S474D); test: PKBb protein kinase assay; conditions: read-out: residual kinase activity
PIM1 = target: T8, PIM1 (Homo sapiens, UniProt P11309); test: PIM1 protein kinase assay; assay type: biochemical; conditions: PIM1, read-out: residual kinase activity; for remaining activity at 1 µM: 1 μM compound; for remaining activity at 10 µM: 10 μM compound
T8 construct: All protein kinases were of human origin and encoded full length proteins, unless indicated otherwise; made in house
From the text: as §1, §2, §3, §4

IR-HIS = IR-HIS protein kinase assay; assay type: biochemical, human; conditions: IR-HIS
From the text: as §1, §2, §3, §4

T4 sequence (Q96RR4 whole entry): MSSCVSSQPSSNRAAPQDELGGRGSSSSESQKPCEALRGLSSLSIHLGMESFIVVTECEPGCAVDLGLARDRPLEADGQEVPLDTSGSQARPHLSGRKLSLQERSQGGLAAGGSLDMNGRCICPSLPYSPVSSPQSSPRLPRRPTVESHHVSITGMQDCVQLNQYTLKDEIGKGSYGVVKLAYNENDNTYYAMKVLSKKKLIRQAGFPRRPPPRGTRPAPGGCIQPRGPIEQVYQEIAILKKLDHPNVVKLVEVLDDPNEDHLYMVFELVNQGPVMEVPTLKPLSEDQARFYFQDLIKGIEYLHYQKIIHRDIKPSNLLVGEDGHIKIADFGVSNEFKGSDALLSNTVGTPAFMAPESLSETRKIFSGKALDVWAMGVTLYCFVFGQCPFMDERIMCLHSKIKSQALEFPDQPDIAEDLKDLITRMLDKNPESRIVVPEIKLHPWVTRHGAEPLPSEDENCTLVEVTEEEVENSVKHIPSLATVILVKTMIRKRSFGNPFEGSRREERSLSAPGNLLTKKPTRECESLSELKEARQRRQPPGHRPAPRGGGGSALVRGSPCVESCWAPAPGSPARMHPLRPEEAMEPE
T6 sequence (P45984 whole entry): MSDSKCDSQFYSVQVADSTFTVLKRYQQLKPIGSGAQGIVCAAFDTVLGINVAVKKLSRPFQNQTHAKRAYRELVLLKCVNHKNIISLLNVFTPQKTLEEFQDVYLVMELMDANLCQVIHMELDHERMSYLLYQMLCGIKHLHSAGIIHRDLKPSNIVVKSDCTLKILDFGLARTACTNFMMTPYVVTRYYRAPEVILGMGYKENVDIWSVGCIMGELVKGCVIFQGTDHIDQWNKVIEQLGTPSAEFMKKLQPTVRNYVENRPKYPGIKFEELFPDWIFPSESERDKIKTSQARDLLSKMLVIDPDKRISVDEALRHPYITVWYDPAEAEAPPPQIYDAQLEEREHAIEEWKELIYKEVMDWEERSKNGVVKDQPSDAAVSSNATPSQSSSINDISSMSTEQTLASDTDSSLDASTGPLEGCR
T7 sequence (P11362 400-820 limits assumed): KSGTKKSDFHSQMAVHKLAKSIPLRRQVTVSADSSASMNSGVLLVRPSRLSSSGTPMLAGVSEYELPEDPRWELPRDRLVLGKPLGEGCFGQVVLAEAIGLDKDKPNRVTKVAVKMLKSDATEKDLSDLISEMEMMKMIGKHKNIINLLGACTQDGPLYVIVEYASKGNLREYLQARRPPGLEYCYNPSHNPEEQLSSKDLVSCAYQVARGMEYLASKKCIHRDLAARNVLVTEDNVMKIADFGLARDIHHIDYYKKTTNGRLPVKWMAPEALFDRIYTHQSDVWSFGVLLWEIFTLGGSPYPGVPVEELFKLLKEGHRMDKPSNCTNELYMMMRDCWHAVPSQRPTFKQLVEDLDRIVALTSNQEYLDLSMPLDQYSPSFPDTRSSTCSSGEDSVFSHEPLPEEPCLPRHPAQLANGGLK
PKBb, sequence (P31751 120-481 S474D): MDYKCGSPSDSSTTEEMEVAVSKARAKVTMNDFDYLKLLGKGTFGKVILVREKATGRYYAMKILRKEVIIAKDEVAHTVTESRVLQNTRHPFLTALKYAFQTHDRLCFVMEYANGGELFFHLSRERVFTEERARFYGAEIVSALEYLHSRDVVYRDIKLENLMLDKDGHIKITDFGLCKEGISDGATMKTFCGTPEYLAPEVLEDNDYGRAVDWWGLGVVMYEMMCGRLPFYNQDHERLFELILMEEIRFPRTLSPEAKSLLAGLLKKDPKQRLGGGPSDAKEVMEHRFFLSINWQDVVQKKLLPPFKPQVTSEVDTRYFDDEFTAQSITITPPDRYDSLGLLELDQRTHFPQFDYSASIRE
T8 sequence (P11309 whole entry): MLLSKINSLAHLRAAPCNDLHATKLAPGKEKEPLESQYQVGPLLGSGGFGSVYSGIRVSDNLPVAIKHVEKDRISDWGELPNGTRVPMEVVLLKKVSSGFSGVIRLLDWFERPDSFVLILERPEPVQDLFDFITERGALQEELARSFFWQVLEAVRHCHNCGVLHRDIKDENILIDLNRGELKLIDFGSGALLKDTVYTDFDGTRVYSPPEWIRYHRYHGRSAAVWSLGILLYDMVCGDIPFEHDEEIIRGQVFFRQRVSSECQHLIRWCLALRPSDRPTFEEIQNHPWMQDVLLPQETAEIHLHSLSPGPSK
T2 sequence (Q06187 whole entry): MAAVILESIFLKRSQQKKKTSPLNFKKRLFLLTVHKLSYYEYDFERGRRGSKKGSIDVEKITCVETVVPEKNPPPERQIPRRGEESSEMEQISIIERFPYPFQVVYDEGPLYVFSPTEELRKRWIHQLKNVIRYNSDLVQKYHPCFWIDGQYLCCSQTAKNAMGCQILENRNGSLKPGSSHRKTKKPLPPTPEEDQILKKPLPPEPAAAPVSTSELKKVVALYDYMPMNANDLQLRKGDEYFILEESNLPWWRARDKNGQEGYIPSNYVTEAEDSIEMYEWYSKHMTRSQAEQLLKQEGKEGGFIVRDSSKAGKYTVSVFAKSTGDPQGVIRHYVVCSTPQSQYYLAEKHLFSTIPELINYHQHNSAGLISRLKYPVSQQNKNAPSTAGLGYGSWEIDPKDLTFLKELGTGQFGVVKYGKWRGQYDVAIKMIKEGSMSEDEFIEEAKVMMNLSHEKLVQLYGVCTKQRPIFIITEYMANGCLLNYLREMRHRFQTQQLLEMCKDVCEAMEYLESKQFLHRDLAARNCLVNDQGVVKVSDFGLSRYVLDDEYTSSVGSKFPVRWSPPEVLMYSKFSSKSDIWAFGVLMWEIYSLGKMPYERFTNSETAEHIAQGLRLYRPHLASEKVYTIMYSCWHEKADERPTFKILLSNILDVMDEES
T1 sequence (Q15759 whole entry): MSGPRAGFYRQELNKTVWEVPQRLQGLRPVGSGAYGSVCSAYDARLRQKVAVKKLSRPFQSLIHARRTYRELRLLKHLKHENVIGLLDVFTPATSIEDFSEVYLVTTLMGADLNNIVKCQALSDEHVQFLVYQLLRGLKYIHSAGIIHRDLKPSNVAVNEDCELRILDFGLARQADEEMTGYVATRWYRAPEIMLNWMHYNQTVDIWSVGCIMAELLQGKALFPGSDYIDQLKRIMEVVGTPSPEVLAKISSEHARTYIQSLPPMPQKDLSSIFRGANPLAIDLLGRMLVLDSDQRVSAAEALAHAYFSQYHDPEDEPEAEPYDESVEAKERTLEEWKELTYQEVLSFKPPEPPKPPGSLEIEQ
T5 sequence (Q02750 whole entry): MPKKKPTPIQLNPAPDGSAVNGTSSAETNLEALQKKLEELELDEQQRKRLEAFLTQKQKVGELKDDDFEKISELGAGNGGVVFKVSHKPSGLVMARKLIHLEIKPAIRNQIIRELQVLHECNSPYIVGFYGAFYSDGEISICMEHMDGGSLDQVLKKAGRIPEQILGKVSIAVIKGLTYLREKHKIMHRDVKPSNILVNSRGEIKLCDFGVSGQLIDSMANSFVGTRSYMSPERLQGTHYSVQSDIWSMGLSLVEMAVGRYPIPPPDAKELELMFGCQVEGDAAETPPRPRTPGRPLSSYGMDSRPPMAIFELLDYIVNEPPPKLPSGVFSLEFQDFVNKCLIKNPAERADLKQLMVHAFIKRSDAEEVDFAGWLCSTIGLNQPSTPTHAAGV

Row | Structure (SMILES) | remaining activity at 1 µM (P38b MAPK) [%] | remaining activity at 10 µM (P38b MAPK) [%] | remaining activity at 1 µM (BTK) [%] | remaining activity at 10 µM (BTK) [%] | residual kinase activity (SmMLCK; 1 μM compound) [%] | residual kinase activity (SmMLCK; 10 μM compound) [%] | remaining activity at 1 µM (MST2) [%] | remaining activity at 10 µM (MST2) [%] | remaining activity at 1 µM (CAMKKb) [%] | remaining activity at 10 µM (CAMKKb) [%] | remaining activity at 1 µM (MKK1) [%] | remaining activity at 10 µM (MKK1) [%] | remaining activity at 1 µM (JNK2) [%] | remaining activity at 10 µM (JNK2) [%] | remaining activity at 1 µM (FGF-R1) [%] | remaining activity at 10 µM (FGF-R1) [%] | remaining activity at 1 µM (PKBb) [%] | remaining activity at 10 µM (PKBb) [%] | remaining activity at 1 µM (PIM1) [%] | remaining activity at 10 µM (PIM1) [%] | further results
1 | O=C(NCCCNc1nc(Nc2cccc(N3CCCC3=O)c2)ncc1C1CC1)c1cccs1 [Example 47, Thiophene-2-carboxylic acid (3-{5-cyclopropyl-2-[3-(2-oxo-pyrrolidin-1-yl)-phenylamino]-pyrimidin-4-ylamino}-propyl)-amide. Hydrochloride salt] | 99 | 90 | 93 | 61 | 102 | 81 | 84 | 70 | 61 | 36 | 33 | 17 | 98 | 89 | 78 | 31 | 117 | 97 | 82 | 57 | residual kinase activity (IR-HIS; 1 μM compound): 105%; residual kinase activity (IR-HIS; 10 μM compound): 85%
2 | O=C(NCCCNc1nc(Nc2cccnc2)ncc1C1CC1)c1cccs1 [Example 50, Thiophene-2-carboxylic acid {3-[5-cyclopropyl-2-(pyridin-3-ylamino)-pyrimidin-4-ylamino]-propyl}-amide] | 99 | 89 | 93 | 66 | 88 | 75 | 73 | 33 | 72 | 40 | 44 | 24 | 102 | 66 | 77 | 31 | 116 | 107 | 63 | 92 | residual kinase activity (IR-HIS; 1 μM compound): 109%; residual kinase activity (IR-HIS; 10 μM compound): 109%

Source: patent US20100056524A1, “Compound” (priority 2008, published 2010)
